Results as given in patent publication US20260285853A1, “COMPOUNDS AND METHODS FOR MODULATING SPLICING” (REMIX THERAPEUTICS INC., priority 2023, published 2026).
Read-outs that look alike come from different tables or passages of the source.

What was measured:
Assay type in all cases: cell-based
[1] = test system: SH-SY5Y (human neuroblastoma) cells; experiment: Cell viability, Cell Titer Glo 2.0 assay; conditions: read-out: Viability SHSY5Y.3 GI50
Summary of the method: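 CellTiter-Glo 2.0 luminescence read-out after 72 h compound exposure (37 °C, 5% CO2); medium-only wells as blank. DMSO 0.1% final.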

MYB mRNA [2] = experiment: Gene panel canonical junction qPCR assay, decrease in CJ mRNA, Table 3
Summary of the method: (§1)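 Cells: A673 or K562; 24 h compound exposure, 37 °C, 5% CO2; 11-pt 3-fold series from 10 uM final; DMSO ≤0.25%. Lysate → cDNA → qPCR with junction-spanning primers/probe for CJ transcript. ΔCt vs housekeeper, ΔΔCt vs DMSO, 2^(−ΔΔCt), % response, 4PL → IC50.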

HTT mRNA [3] = experiment: as above
Summary of the method: as §1

MYB mRNA [4] = experiment: Splicing RT-qPCR assay (THP), Table 2A
HTT mRNA [5] = experiment: Splicing RT-qPCR assay (THP), Table 2A
[6] = decrease in canonical junction (CJ) mRNA, gene panel qPCR, Table 3
[7] = Table 2A (THP), AJ mRNA increase, read-out: MYB AJ (increase in alternative junction mRNA, AC50)
[8] = Table 2A (THP), CJ mRNA decrease, read-out: MYB CJ (decrease in canonical junction mRNA, IC50)
[9] = Table 2A (THP), AJ mRNA increase, read-out: HTT AJ (increase in alternative junction mRNA, AC50)
[10] = Table 2A (THP), CJ mRNA decrease, read-out: HTT CJ (decrease in canonical junction mRNA, IC50)
[11] = decrease in CJ mRNA levels, canonical junction qPCR, gene panel
[12] = Table 2A, THP, MYB alternative junction (AJ) mRNA, read-out: MYB AJ (AC50, increase in alternative junction mRNA)
[13] = Table 2A, THP, MYB canonical junction (CJ) mRNA, read-out: MYB CJ (IC50, decrease in canonical junction mRNA)
[14] = Table 2A, THP, HTT alternative junction (AJ) mRNA, read-out: HTT AJ (AC50, increase in alternative junction mRNA)
[15] = Table 2A, THP, HTT canonical junction (CJ) mRNA, read-out: HTT CJ (IC50, decrease in canonical junction mRNA)

| SMILES | GI50 [1] [nM] | IC50 (MYB mRNA [2]; [6]) [nM] | IC50 (HTT mRNA [3]; [6]) [nM] | IC50 (MYB mRNA [4]; [8]) [nM] | IC50 (HTT mRNA [5]; [10]) [nM] | IC50 (MYB mRNA [2]; [11]) [nM] | IC50 (HTT mRNA [3]; [11]) [nM] | IC50 (MYB mRNA [4]; [13]) [nM] | IC50 (HTT mRNA [5]; [15]) [nM] | AC50 (MYB mRNA [4]; [7]) [nM] | AC50 (HTT mRNA [5]; [9]) [nM] | AC50 (MYB mRNA [4]; [12]) [nM] | AC50 (HTT mRNA [5]; [14]) [nM] |
| --- | --- | --- | --- | --- | --- | --- | --- | --- | --- | --- | --- | --- | --- |
| COc1cn2nc(C)cc2cc1NC(=O)c1c(F)cc(N2CCC(NC3CC3)CC2)c2cn(C)nc12 [Compound 432, 4-[4-(cyclopropylamino)-1-piperidyl]-6-fluoro-N-(6-methoxy-2-methyl-pyrazolo[1,5-a]pyridin-5-yl)-2-methyl-indazole-7-carboxamide] | < 100 | < 100 | 100 to 1000 | < 100 | 100 to 1000 | – | – | – | – | < 100 | 100 to 1000 | – | – |
| CCNC1(C)CCN(c2ccc(C(=O)Nc3cn4cc(C)nc(C)c4c3F)c3nn(C)cc23)CC1 [Compound 571, 4-[4-(ethylamino)-4-methyl-1-piperidyl]-N-(8-fluoro-1,3-dimethyl-pyrrolo[1,2-a]-pyrazin-7-yl)-2-methyl-indazole-7-carboxamide] | 1000 to 10000 | 1000 to 10000 | > 10000 | 1000 to 10000 | > 10000 | – | – | – | – | 1000 to 10000 | > 10000 | – | – |
| C=CCNC1CCN(c2ccc(C(=O)Nc3cc(CO)c4nn(C)cc4c3)c3nn(C)cc23)CC1 [Compound 794, 4-[4-(allylamino)-1-piperidyl]-N-[7-(hydroxymethyl)-2-methyl-indazol-5-yl]-2-methyl-indazole-7-carboxamide] | 1000 to 10000 | – | – | – | – | 100 to 1000 | > 10000 | 100 to 1000 | > 10000 | – | – | 1000 to 10000 | > 10000 |
| COc1nc2c(C(=O)Nc3cc4cn(C)nc4cc3OC)ccc(N3C[C@H](C)N[C@@H](C)C3)c2s1 [Compound 671, 7-[(3S,5S)-3,5-dimethyl-piperazin-1-yl]-2-methoxy-N-(6-methoxy-2-methyl-indazol-5-yl)-1,3-benzothiazole-4-carboxamide] | 1000 to 10000 | – | – | – | – | 100 to 1000 | > 10000 | 100 to 1000 | > 10000 | – | – | 100 to 1000 | 1000 to 10000 |
| COc1cc2nn(C)cc2cc1NC(=O)c1ccc(N2C[C@H](C)N[C@@H](C)C2)c2cn(C)nc12 [Compound 553] | 1000 to 10000 | 100 to 1000 | 1000 to 10000 | 100 to 1000 | 1000 to 10000 | – | – | – | – | < 100 | 1000 to 10000 | – | – |
| COc1cc2nn(C)cc2cc1NC(=O)c1c(F)cc(N2[C@@H]3CC[C@H]2C[C@@H](NC2CC2)C3)c2cn(C)nc12 [Compound 428, 4-[(1R,5S)-3-(cyclo-propyl-amino)-8-azabicyclo [3.2.1]octan-8-yl]-6-fluoro-N-(6-methoxy-2-methyl-indazol-5-yl)-2-methyl-indazole-7-carboxamide] | 1000 to 10000 | 1000 to 10000 | > 10000 | 1000 to 10000 | > 10000 | – | – | – | – | 1000 to 10000 | > 10000 | – | – |
| COc1nc2nn(C)cc2cc1NC(=O)c1c(F)cc(N2CCC(NC3CC3)CC2)c2cn(C)nc12 [Compound 431, 4-[4-(cyclopropylamino)-1-piperidyl]-6-fluoro-N-(6-methoxy-2-methyl-pyrazolo-[3,4-b]pyridin-5-yl)-2-methyl-indazole-7-carboxamide] | 100 to 1000 | < 100 | 100 to 1000 | < 100 | 100 to 1000 | – | – | – | – | < 100 | 100 to 1000 | – | – |
| C[C@H]1CN(c2ccc(C(=O)Nc3cc(F)c4nn(C)cc4c3)c3nc(OCCO)sc23)C[C@H](C)N1 [Compound 712, 7-[(3S,5S)-3,5-dimethylpiperazin-1-yl]-N-(7-fluoro-2-methyl-indazol-5-yl)-2-(2-hydroxyethoxy)-1,3-benzothiazole-4-carboxamide] | < 100 | – | – | – | – | < 100 | < 100 | < 100 | < 100 | – | – | < 100 | < 100 |
| CCNC1CCN(c2ccc(C(=O)Nc3cc4cn(C)nc4cc3OC)c3nn(C)cc23)C(C)C1 (stereo not shown) [Compound 736, 4-(4-(ethylamino)-2-methylpiperidin-1-yl)-N-(6-methoxy-2-methyl-2H-indazol-5-yl)-2-methyl-2H-indazole-7-carboxamide 2,2,2-trifluoroacetate] | 1000 to 10000 | – | – | – | – | > 10000 | > 10000 | > 10000 | > 10000 | – | – | 1000 to 10000 | > 10000 |

More lines, main results first:

| GI50 [1] [nM] | IC50 (MYB mRNA [2]; [6]) [nM] | IC50 (HTT mRNA [3]; [6]) [nM] | IC50 (MYB mRNA [4]; [8]) [nM] | IC50 (HTT mRNA [5]; [10]) [nM] | IC50 (MYB mRNA [2]; [11]) [nM] | IC50 (HTT mRNA [3]; [11]) [nM] | IC50 (MYB mRNA [4]; [13]) [nM] | IC50 (HTT mRNA [5]; [15]) [nM] | SMILES | AC50 (MYB mRNA [4]; [7]) [nM] | AC50 (HTT mRNA [5]; [9]) [nM] | AC50 (MYB mRNA [4]; [12]) [nM] | AC50 (HTT mRNA [5]; [14]) [nM] |
| --- | --- | --- | --- | --- | --- | --- | --- | --- | --- | --- | --- | --- | --- |
| 1000 to 10000 | > 10000 | > 10000 | > 10000 | > 10000 | – | – | – | – | CCNC1CCN(c2ccc(C(=O)Nc3cn4cc(C)nc(C)c4c3OC)c3nn(C)cc23)CC1 [Compound 452, 4-(4-(ethylamino)-piperidin-1-yl)-N-(8-methoxy-1,3-dimethyl-pyrrolo[1,2-a]pyrazin-7-yl)-2-methyl-2H-indazole-7-carboxamide 2,2,2-trifluoroacetate] | > 10000 | > 10000 | – | – |
| 1000 to 10000 | > 10000 | > 10000 | > 10000 | > 10000 | – | – | – | – | Cc1cn2cc(NC(=O)c3ccc(N4CC5(CNCCO5)C4)c4cn(C)nc34)nc2c(C)n1 [Compound 497] | > 10000 | > 10000 | – | – |
| > 10000 | 1000 to 10000 | > 10000 | 1000 to 10000 | > 10000 | – | – | – | – | CCNC1CCN(c2ccc(C(=O)Nc3cc(Oc4ccccn4)c4nc(C)cn4c3)c3nn(C)cc23)CC1 [Compound 365, 4-[4-(ethylamino)-1-piperidyl]-2-methyl-N-[2-methyl-8-(2-pyridyloxy)-imidazo[1,2-a]pyridin-6-yl]indazole-7-carboxamide] | 1000 to 10000 | > 10000 | – | – |
| 1000 to 10000 | > 10000 | > 10000 | – | – | – | – | > 10000 | > 10000 | Cc1cn2cc(NC(=O)c3ccc(N4CCC(NC5CC5)CC4)c4cn(C)nc34)nc2c(CN(C)C)n1 [Compound 600, 4-(4-(cyclopropylamino)piperidin-1-yl)-N-(8-((dimethylamino)methyl)-6-methylimidazo[1,2-a]pyrazin-2-yl)-2-methyl-2H-indazole-7-carboxamide bis(2,2,2-trifluoroacetate)] | – | – | > 10000 | > 10000 |
| 1000 to 10000 | 1000 to 10000 | 1000 to 10000 | 1000 to 10000 | 1000 to 10000 | – | – | – | – | Cc1cn2cc(NC(=O)c3ccc(N4CC(C5CCNCC5)C4)c4cn(C)nc34)nc2c(C)n1 [Compound 499] | 1000 to 10000 | 1000 to 10000 | – | – |
| 1000 to 10000 | 100 to 1000 | 1000 to 10000 | 100 to 1000 | 1000 to 10000 | – | – | – | – | CCNC1CCN(c2ccc(C(=O)Nc3cn4cc(C)nc4cc3OC)c3nn(C)cc23)CC1 [Compound 323, 4-[4-(ethylamino)-1-piperidyl]-N-(7-methoxy-2-methyl-imidazo[1,2-a]-pyridin-6-yl)-2-methyl-indazole-7-carboxamide 2,2,2-trifluoroacetate] | 100 to 1000 | 1000 to 10000 | – | – |
| 1000 to 10000 | 1000 to 10000 | 1000 to 10000 | 1000 to 10000 | 1000 to 10000 | – | – | – | – | CCNC1CCN(c2ccc(C(=O)Nc3cn4cc(C)nc(C)c4c3F)c3nn(C)cc23)CC1 [Compound 523, 4-[4-(ethylamino)-1-piperidyl]-N-(8-fluoro-1,3-dimethyl-pyrrolo[1,2-a]pyrazin-7-yl)-2-methyl-indazole-7-carboxamide] | 1000 to 10000 | 1000 to 10000 | – | – |
| 100 to 1000 | 100 to 1000 | 100 to 1000 | 100 to 1000 | 100 to 1000 | – | – | – | – | COc1c(NC(=O)c2c(F)cc(N3CCC(NC4CC4)CC3)c3cn(C)nc23)cn2cc(C)nc2c1C#N [Compound 320, N-(8-cyano-7-methoxy-2-methyl-imidazo[1,2-a]pyridin-6-yl)-4-[4-(cyclopropylamino)-1-piperidyl]-6-fluoro-2-methyl-indazole-7-carboxamide] | 100 to 1000 | 100 to 1000 | – | – |
| > 10000 | 100 to 1000 | > 10000 | 100 to 1000 | > 10000 | – | – | – | – | Cc1cn2cc(NC(=O)c3ccc(N4CCC5(CCN5)CC4)c4cn(C)nc34)nc2c(C)n1 [Compound 563, 4-(1,7-diazaspiro[3.5]nonan-7-yl)-N-(6,8-dimethyl-imidazo[1,2-a]pyrazin-2-yl)-2-methyl-indazole-7-carboxamide] | 100 to 1000 | > 10000 | – | – |
| 1000 to 10000 | 100 to 1000 | > 10000 | 100 to 1000 | > 10000 | – | – | – | – | Cc1cn2cc(NC(=O)c3ccc(N4CCC(NC5CC5)CC4)c4cn(C)nc34)nc2c(Cl)n1 [Compound 479, N-(8-chloro-6-methyl-imidazo[1,2-a]-pyrazin-2-yl)-4-[4-(cyclopropylamino)-1-piperidyl]-2-methyl-indazole-7-carboxamide] | 100 to 1000 | > 10000 | – | – |
